Reference: US8946275B2, “Treatment of cancer using hypoxia activated prodrugs” (Threshold Pharmaceuticals, Inc., priority 2008, dated 2015)
In brackets after ≈: the same amount, converted by molar mass. Like-named read-outs stand apart in the source and are kept apart here.

Experiments:
[1] = test system: PC-3 human prostate cancer cells; assay: PC-3 ectopic xenograft, TH-302/docetaxel dosing schedules; assay type: in vivo, nude mice; conditions: single agent, TH-302 150 mg/kg ip once or Docetaxol 10 mg/kg iv once
[2] = test system: HT1080 human fibrosarcoma cells; assay: HT1080 ectopic xenograft, TH-302/doxorubicin dosing schedules; assay type: in vivo, nude mice; conditions: single agent, TH-302 100 mg/kg ip 1/wkx2wks or Dox 4 mg/kg iv 1/wkx2wks
Method: Anti-tumor activity was evaluated by tumor growth delay (TGD) and tumor growth inhibition (TGI). Body weight change, gross and microscopic assessment of tissue changes, and hematologic assays served for toxicity assessment. Testing in these models was conducted generally as follows. 1×10^6 (H460 human non-small cell lung cancer or HT1080 human fibrosarcoma cells) or 3×10^6 (PC-3 human prostate cancer cells) were implanted in the subcutaneous space of the right flank to obtain ectopic xenograft models. Randomization and dosing was initiated when tumors reached a certain size (100-150 mm^3). API grade of TH-302 was used in all experiments while docetaxel, gemcitabine, cisplatin, pemetrexed, and doxorubicin were purchased from commercial sources.
The H460 cells were prepared in 30% Matrigel and 70%. RPMI1640. Mice were anesthetized by isoflurane and were implanted subcutaneously with 1×10^6 cells (in 200 μl) at the flank position. We selected 110 mice bearing similar size tumors (˜100 mm^3) for the study. Mice bearing similar tumor size were randomly assigned into different groups. Treatment started on day 1 (7 days after tumor implantation) except as noted. TH-302 was administered intraperitoneally (IP) at 150 mg/kg, and docetaxel was administered intravenously (IV) at 10 mg/kg. Animals were observed daily and tumor measurements and body weights recorded twice weekly.
In a study conducted substantially as described above except the cells implanted were HT1080 human fibrosarcoma cells and 1×10^6 cells were implanted and mice were randomized into separate groups when their […]

Calu6 NSCLC = assay: Calu-6 ectopic tumor model, TH-302 with doxorubicin; assay type: in vivo, nude mice; conditions: Dox 4 mg/kg IV Q7Dx2; TH-302 50 mg/kg IP QDx5/wkx2wks; alone or combined
[3] = test system: orthotopic prostate cancer PC-3 cells; assay: Orthotopic PC-3 prostate cancer model, TH-302 with Taxol; assay type: in vivo, mice; conditions: single agents: Taxol 12 mg/kg; TH-302 30 or 50 mg/kg
Method: TH-302 was tested as monotherapy and in combination with Taxol (paclitaxel) in animals bearing highly invasive and metastatic orthotopic prostate cancer PC-3 cells. Animals were randomized into 6 groups of 8 mice each and then treated either with vehicle; Taxol (12 mg/kg, IV, twice a week for 4 consecutive weeks); TH-302 (30 or 50 mg/kg, IP, once a day for 5 days a week for 2 consecutive weeks); or Taxol in combination with TH-302 (using the same single agent regimens).

HT29 colon cancer = assay: HT-29 ectopic tumor model, TH-302 with 5FU; assay type: in vivo, nude mice
[4] = test system: small cell lung cancer (SCLC); assay: TH-302 monotherapy in patients with lung cancer (SCLC); assay type: in vivo, human
Method: Eight subjects with SCLC have been treated with TH-302 monotherapy at initial doses of 480 mg/m^2 to 670 mg/m^2 as part of a 3 consecutive week dosing regimen repeated every 4 weeks (this excludes one subject dosed at 60 mg/m^2 during the initial dose escalation). RECIST tumor assessments were performed initially for seven subjects. […] One of the seven subjects continued on-study for additional cycles of treatment.
In this study, a person suffering from a lung cancer (a refractory small cell lung cancer) that had metastasized to liver was treated as follows. Lyophilized TH-302 was diluted with D5W and administered to the patient at an amount of 480 mg/m^2, according to the following 4 week dosing cycle: TH-302 was administered once every week for 3 weeks, on days 1, 8, and 15, followed by a week of no TH-302 administration. The patient was administered 2 cycles (i.e. 6 doses) of TH-302, and the lung and liver cancers assessed by a computed tomography (or CT) scan. […] LDH had decreased 72%, and liver function tests had normalized.

Solubility of TH-302 = assay type: physicochemical; conditions: organic solvent or mixture
H460 NSCLC = assay: H460 ectopic lung cancer model, TH-302 with pemetrexed; assay type: in vivo, nude mice; conditions: PMX 150 mg/kg 1/wkx2wks IP; TH-302 50 mg/kg 5/wkx2wks IP; alone or combined
Method: Anti-tumor activity was evaluated by tumor growth inhibition (TGI) and tumor growth delay (TGD). Body weight change, gross and microscopic assessment of tissue changes, and hematologic assays served for toxicity assessment.
Testing in these models was conducted generally as follows. 1×10^6 H460 human non-small cell lung cancer or HT1080 human fibrosarcoma cells were implanted in the subcutaneous space of the right flank to obtain ectopic xenograft models. For the orthotopic pancreatic model, red-fluorescent protein (RFP) expressing MIA PaCa2 tumors were surgically implanted on the surface of the pancreas. The prostate metastatic model was created by the intraventricular injection of 3×10^6 luciferase-expressing PC-3 cells. […] API grade of TH-302 was used in all experiments while docetaxel, gemcitabine, doxorubicin and pemetrexed were purchased from commercial sources.

[5] = 5-FU 50 mg/kg IV Q3Dx4, TH-302 150 mg/kg IP Q7Dx3, alone or combined
[6] = TH-302 100 mg/kg IP Q3Dx5, alone or + 5-FU 50 mg/kg IV Q3Dx4
[7] = 480-670 mg/m^2, weekly x3 every 4 weeks, seven subjects assessed
[8] = one refractory SCLC patient, 480 mg/m^2, 2 cycles

## Cn1c(COP(=O)(NCCBr)NCCBr)cnc1[N+](=O)[O-] [TH-302, (2-bromoethyl)({[(2-bromoethyl)amino][(2-nitro-3-methylimidazol-4-yl)methoxy]phosphoryl})amine]
[1]
  Days to 500 mm^3: 25 days
  T/C: 48.7%
  TGD500, Days (vs. vehicle): 9 days
  TGI: 51.3%
[1]; in mm³
  Tn (tumor volume on Day n): 559.95
[2]
  Days to 500 mm^3: 22 days
  T/C: 25.3%
  TGD500, Days (vs. vehicle): 10 days
  TGI: 74.7%
  Tn (tumor volume on Day n): 334.66
Calu6 NSCLC
  Days to 500 mm^3: 29 days
  Days to 1000 mm^3: 39 days
  T/C: 59.2%
  TGD500, Days (vs. vehicle): 11 days
  TGD1000, Days (vs. vehicle): 8 days
  TGI: 40.8%
  Tn (tumor volume on Day n): 695.67
[3]
  Primary tumor growth during the treatment period: significantly inhibited primary tumor growth
HT29 colon cancer; [5]
  Days to 500 mm^3: 28 days
  Days to 1000 mm^3: 46 days
  T/C: 48.4%
  TGD500, Days (vs. vehicle): 6 days
  TGD1000, Days (vs. vehicle): 14 days
  TGI: 51.6%
  Tn (tumor volume on Day n): 565.70
HT29 colon cancer; [6]
  Days to 500 mm^3: 29 days
  Days to 1000 mm^3: 41 days
  T/C: 52.0%
  TGD500, Days (vs. vehicle): 7 days
  TGD1000, Days (vs. vehicle): 9 days
  TGI: 48.0%
  Tn (tumor volume on Day n): 580.55
[4]; [7]
  Partial responses (RECIST): Two of seven subjects
  Stable disease (RECIST): three of these same seven subjects
[4]; [8]
  Decrease in sum of the longest diameters [SLD] of target lesions: 44%
  LDH decrease: 72%
  Reduction in area of cancer in lung and liver: over 50%
[4]; three other patients with lung cancer (one NSCLC, 2 SCLC)
  Response: stable disease
Solubility of TH-302; ethanol, even at higher temperatures, read-out: Highest solubility of TH-302 in ethanol
  solubility: ~80 mg/mL (≈ 178 mM)
Solubility of TH-302; ethanol/TWEEN 80 or ethanol/TWEEN 80/DMA, depending on the ratio, read-out: Solubility of TH-302
  solubility: ≤ 300 mg/mL
H460 NSCLC
  Days to 500 mm^3: 26 days
  Days to 1000 mm^3: 34 days
  T/C: 38.4%
  TGD500, Days (vs. vehicle): 12 days
  TGD1000, Days (vs. vehicle): 10 days
  TGI: 61.6%
  Tn (tumor volume on Day n): 507.13
